Source: publication PMC11224111, “Optimizing the pharmacokinetics of an ^211At-labeled RGD peptide with an albumin-binding moiety via the administration of an albumin-binding inhibitor” (European Journal of Nuclear Medicine and Molecular Imaging, 2024)
Read-outs that look alike come from different tables or passages of the source. Marks after values point to notes of the source that are not given here. Values belong to the compound of their own block, whether it stands above or below them.

Legend:
[1] = Biodistribution of [^211At]1 and [^125I]2 in normal mice with ibuprofen or IPBA as albumin-binding inhibitor; settings: inhibitor at 1 h postinjection, 4 h postinjection of radiotracer
Protocol: To evaluate the effects of albumin-binding inhibitors in normal mice, [^211At]1 (37 kBq) and [^125I]2 (37 kBq) were intravenously coadministered. […] The total blood albumin (1.1 µmol) in normal mice was calculated from the albumin concentration (3.0 g/dL ≈ 455 µM) in blood, which was informed from Japan SLC, Inc., total blood volume (2.5 mL) as 8% of body weight, and the molecular weight of albumin as 66,000 g/mol. […]
Table S1. Biodistribution of radioactivity 4 h after administration of [^211At]1 and [^125I]2 in normal mice.

[2] = cited from earlier work
[3] = Biodistribution of [^125I]2 and [^67Ga]3 in normal mice with IPBA; format: in vivo; settings: for tissue uptake at 4 h / tissue uptake dose at 4 h: male, ddY, iv, total radioactivity
Protocol: To evaluate the effects of inhibitors in normal mice, [^125I]2 (37 kBq) and [^67Ga]3 (37 kBq) were intravenously coadministered into 6 weeks male ddY mice (29-36 g, Japan SLC, Inc., Hamamatsu, Japan). At 1 h postinjection of radiotracers, sodium 4-(4-iodophenyl)butanoate (IPBA) at 2 (680 µg, 2.2 µmol) or 5 (1.7 mg, 5.5 µmol) molar equivalent of blood albumin was administered. Mice were sacrificed at 4 h post-injection of radiotracers.
Table S2. […] IPBA as an inhibitor was administered at 1 h postinjection of [^125I]2 and [^67Ga]3.

[4] = system: U-87 MG tumor-bearing mice; parameters: method as in PMID 37819452; settings: 24-h postinjection, without IPBA; cited from earlier work
[5] = normal mice, 4 h after administration, without IPBA
[6] = normal mice, 4 h after administration of [^125I]2 and [^67Ga]3, IPBA 2 eq at 1 h postinjection
[7] = normal mice, 4 h after administration of [^125I]2 and [^67Ga]3, IPBA 5 eq at 1 h postinjection

- Effect of inhibitor on blood radioactivity of [^211At]1 [1]: decreased in a dose-dependent manner
SMILES: O=C([O-])CCCc1ccc(I)cc1.[Na+] [IPBA, sodium 4-(4-iodophenyl)butanoate, reference compound]

- tissue uptake at 4 h ([3]; mouse, heart, normal mice, 4 h after administration of [^125I]2 and [^67Ga]3, IPBA 5 eq at 1 h postinjection, read-out: Radioactivity, Heart): 0.29 %ID/g
- tissue uptake at 4 h ([3]; mouse, in vivo, Radioactivity, L. intestine): 3.07 %ID/g
- tissue uptake at 4 h ([3]; mouse, in vivo, Radioactivity, S. intestine): 1.05 %ID/g
- tissue uptake at 4 h ([3]; mouse, kidney, normal mice, 4 h after administration of [^125I]2 and [^67Ga]3, IPBA 5 eq at 1 h postinjection, read-out: Radioactivity, Kidney): 8.04 %ID/g
- tissue uptake at 4 h ([3]; mouse, liver, normal mice, 4 h after administration of [^125I]2 and [^67Ga]3, IPBA 5 eq at 1 h postinjection, read-out: Radioactivity, Liver): 1.54 %ID/g
- tissue uptake dose at 4 h ([3]; mouse, neck, normal mice, 4 h after administration of [^125I]2 and [^67Ga]3, IPBA 2 eq at 1 h postinjection, read-out: Radioactivity, Neck): 0.01 %ID
- tissue uptake dose at 4 h ([3]; mouse, neck, normal mice, 4 h after administration of [^125I]2 and [^67Ga]3, IPBA 5 eq at 1 h postinjection, read-out: Radioactivity, Neck): 0.01 %ID
- tissue uptake dose at 4 h ([3]; mouse, stomach, normal mice, 4 h after administration of [^125I]2 and [^67Ga]3, IPBA 2 eq at 1 h postinjection, read-out: Radioactivity, Stomach): 0.48 %ID
- tissue uptake dose at 4 h ([3]; mouse, stomach, normal mice, 4 h after administration of [^125I]2 and [^67Ga]3, IPBA 5 eq at 1 h postinjection, read-out: Radioactivity, Stomach): 0.59 %ID
- Change of biodistribution by IPBA administration ([3]; normal mice, IPBA 2 or 5 eq at 1 h postinjection): did not change biodistribution
SMILES: N=C(N)NCCC[C@@H]1NC(=O)[C@H](CCCCNC(=O)[C@H](CCCCN)NC(=O)CN2CCN(CC(=O)O)CCN(CC(=O)O)CCN(CC(=O)O)CC2)NC(=O)[C@@H](Cc2ccccc2)NC(=O)[C@H](CC(=O)O)NC(=O)CNC1=O [[^67Ga]3, [^67Ga]Ga-DOTA-K-c(RGDfK), metal not drawn]
- Radioactivity, L. intestine ([2]; mouse, in vivo): 1.88 (0.65) % injected activity per gram
- Radioactivity, S. intestine ([2]; mouse, in vivo): 1.16 (0.15) ^* % injected activity per gram
- Radioactivity, Blood [2, 5]: 0.09 (0.05) ^*** % injected activity per gram
- Radioactivity, Bone [2, 5]: 0.83 (0.05) ^* % injected activity per gram
- Radioactivity, Brain [2, 5]: 0.05 (0.00) ^*** % injected activity per gram
- Radioactivity, Heart [2, 5]: 0.26 (0.04) ^*** % injected activity per gram
- Radioactivity, Kidney [2, 5]: 6.61 (0.81) ^* % injected activity per gram
- Radioactivity, Liver [2, 5]: 1.15 (0.07) ^** % injected activity per gram
- Radioactivity, Lung [2, 5]: 0.50 (0.04) ^*** % injected activity per gram
- Radioactivity, Muscle [2, 5]: 0.19 (0.02)^ *** % injected activity per gram
- Radioactivity, Neck [2, 5]: 0.02 (0.00)^ ** % injected activity
- Radioactivity, Pancreas [2, 5]: 0.40 (0.03)^ *** % injected activity per gram
- Radioactivity, Spleen [2, 5]: 0.64 (0.12) ^*** % injected activity per gram
- Radioactivity, Stomach [2, 5]: 0.44 (0.04)^ * % injected activity
- Radioactivity, L. intestine ([3]; mouse, in vivo): 4.88 (1.50) ^a % injected activity per gram
- Radioactivity, S. intestine ([3]; mouse, in vivo): 1.76 (0.40) ^*,^ b % injected activity per gram
- Radioactivity, Blood [3, 6]: 0.03 (0.01) ^***,^ a % injected activity per gram
- Radioactivity, Bone [3, 6]: 0.55 (0.08) ^**,^ a % injected activity per gram
- Radioactivity, Brain [3, 6]: 0.04 (0.01) ^** % injected activity per gram
- Radioactivity, Heart [3, 6]: 0.23 (0.03) ^***,^ a % injected activity per gram
- Radioactivity, Kidney [3, 6]: 6.67 (1.04) ^* % injected activity per gram
- Radioactivity, Liver [3, 6]: 1.18 (0.14) ^*** % injected activity per gram
- Radioactivity, Lung [3, 6]: 0.49 (0.05) ^***,^ a % injected activity per gram
- Radioactivity, Muscle [3, 6]: 0.16 (0.02) ^***,^ a % injected activity per gram
- Radioactivity, Pancreas [3, 6]: 0.33 (0.01) ^*** % injected activity per gram
- Radioactivity, Spleen [3, 6]: 0.64 (0.16) ^*** % injected activity per gram
- Radioactivity, Blood [3, 7]: 0.03 (0.00) ^*,^ a % injected activity per gram
- Radioactivity, Bone [3, 7]: 0.70 (0.12) ^** % injected activity per gram
- Radioactivity, Brain [3, 7]: 0.05 (0.02) ^** % injected activity per gram
- Radioactivity, Lung [3, 7]: 0.55 (0.11) ^*,^ a % injected activity per gram
- Radioactivity, Muscle [3, 7]: 0.23 (0.04) ^*,^ b % injected activity per gram
- Radioactivity, Pancreas [3, 7]: 0.47 (0.13) ^** % injected activity per gram
- Radioactivity, Spleen [3, 7]: 0.90 (0.28) ^* % injected activity per gram
- Tumor accumulation [4]: 1.84 ± 0.09 %IA/g
